Experiments:
[1] = system: HEK293 cells; details: for Cytotoxicity against HEK cells: 25 h
[2] = system: Vero cells

## O=C(CCCN1C(=O)c2ccccc2C1=O)Nc1ccc2ccccc2c1 [Compound 4, 4-(1,3-dioxo-1,3-dihydro-2H-isoindol-2-yl)-N-2-naphthylbutanamide]
[1]
  effect on growth and proliferation of HEK293 cells: decreased the cell numbers
[1]; 20 µM
  Cytotoxicity against HEK cells: 0.603

## O=C(c1cc(-c2ccc(F)cc2)n[nH]1)N1CCC(Cc2ccc(CO)cc2)C1 (stereo not shown) [Compound 22, {4-[(1-{[3-(4-fluorophenyl)-1H-pyrazol-5-yl]carbonyl}pyrrolidin-3-yl)methyl]phenyl}methanol]
[1]; 20 µM
  Cytotoxicity against HEK cells: 0.596

## COCc1ccc(C(=O)NCc2nc(-c3cccc(NC(=O)C4CCCN(C)C4)c3)oc2C)s1 (stereo not shown) [Compound 26, N-(3-{4-[({[5-(methoxymethyl)-2-thienyl]carbonyl}amino)methyl]-5-methyl-1,3-oxazol-2-yl}phenyl)-1-methyl-3-piperidinecarboxamide]
[1]; 20 µM
  Cytotoxicity against HEK cells: 0.587

## O=C(CCCc1ccccc1)Nc1cccc(N2CCC(NCc3cccnc3)CC2)c1 [Compound 33, 4-phenyl-N-(3-{4-[(3-pyridinylmethyl)amino]-1-piperidinyl}phenyl)butanamide]
[1]; 20 µM
  Cytotoxicity against HEK cells: 0.588

## CC(C)(O)C#Cc1ccc(C(=O)N2CCCC(CCC(=O)NCc3ccccc3F)C2)cc1 (stereo not shown) [Compound 35, N-(2-fluorobenzyl)-3-{1-[4-(3-hydroxy-3-methyl-1-butyn-1-yl)benzoyl]-3-piperidinyl}propanamide]
[1]; 20 µM
  Cytotoxicity against HEK cells: 0.580

## Cn1cc(C(=O)N2CCN(CCOc3ccc(CN4CCC(Cc5ccccc5)CC4)cc3)CC2)c(=O)c2ccccc21 [Compound 58, 3-{[4-(2-{4-[(4-benzyl-1-piperidinyl)methyl]phenoxy}ethyl)-1-piperazinyl]carbonyl}-1-methyl-4(1H)-quinolinone]
[1]; 20 µM
  Cytotoxicity against HEK cells: 0.602

## CN(Cc1ccc(OCCN2CCN(C(=O)C3Cc4ccccc4O3)CC2)cc1)Cc1ccc2ncccc2c1 (stereo not shown) [Compound 60, (4-{2-[4-(2,3-dihydro-1-benzofuran-2-ylcarbonyl)-1-piperazinyl]ethoxy}benzyl)methyl(6-quinolinylmethyl)amine]
[1]; 20 µM
  Cytotoxicity against HEK cells: 0.572

## O=C(Nc1cccc(N2CCC(NCCC(c3ccc(F)cc3)c3ccco3)CC2)c1)c1ccncc1 (stereo not shown) [Compound 61, N-[3-(4-{[3-(4-fluorophenyl)-3-(2-furyl)propyl]amino}-1-piperidinyl)phenyl]isonicotinamide]
[1]; 20 µM
  Cytotoxicity against HEK cells: 0.173

## COC(=O)c1c(NC(=O)C2CCCO2)c2cc(NCc3cccc(OCCO)c3)cnc2n1CCc1ccccc1 (stereo not shown) [Compound 69, methyl 5-{[3-(2-hydroxyethoxy)benzyl]amino}-1-(2-phenylethyl)-3-[(tetrahydro-2-furanylcarbonyl)amino]-1H-pyrrolo[2,3-b]pyridine-2-carboxylate]
[1]
  effect on growth and proliferation of HEK293 cells: decreased the cell numbers
[1]; 20 µM
  morphological changes in HEK293 cells: slightly triggered cellular shrinking
  Cytotoxicity against HEK cells: 0.529

## O=C(C1CCCN(c2cccc3c2C(=O)N(Cc2ccsc2)C3=O)C1)N1CCC(O)(c2cccc(C(F)(F)F)c2)CC1 (stereo not shown) [Compound 73, 4-[3-({4-hydroxy-4-[3-(trifluoromethyl)phenyl]-1-piperidinyl}carbonyl)-1-piperidinyl]-2-(3-thienylmethyl)-1H-isoindole-1,3(2H)-dione]
[2]
  cytotoxicity in Vero cells: no cytotoxicity
  growth of Vero cells: reduced the growth
[1]; 20 µM
  Cytotoxicity against HEK cells: 0.602

## O=C(NCCS(=O)(=O)N1CCc2ccccc2C1)C1CC(=O)N(c2ccc(Cl)cc2)C1 (stereo not shown) [Compound 74, 1-(4-chlorophenyl)-N-(2-((3,4-dihydroisoquinolin-2(1H)-yl)sulfonyl)ethyl)-5-oxopyrrolidine-3-carboxamide]
[2]
  cytotoxicity in Vero cells: no cytotoxicity
  growth of Vero cells: reduced the growth
[1]; 20 µM
  Cytotoxicity against HEK cells: 0.568

## Cc1ccc(N2CC(C(=O)NCCS(=O)(=O)N3CCc4ccccc4C3)CC2=O)cc1 (stereo not shown) [Compound 75, N-(2-((3,4-dihydroisoquinolin-2(1H)-yl)sulfonyl)ethyl)-5-oxo-1-(p-tolyl)pyrrolidine-3-carboxamide]
[1]; 20 µM
  Cytotoxicity against HEK cells: 0.604

## Cc1ccc(N2CC(C(=O)NCCS(=O)(=O)N3CCc4ccccc4C3)CC2=O)cc1C (stereo not shown) [Compound 76, N-(2-((3,4-dihydroisoquinolin-2(1H)-yl)sulfonyl)ethyl)-1-(3,4-dimethylphenyl)-5-oxopyrrolidine-3-carboxamide]
[1]; 20 µM
  Cytotoxicity against HEK cells: 0.520

## COc1cccc(N2CC(C(=O)NCCS(=O)(=O)N3CCc4ccccc4C3)CC2=O)c1 (stereo not shown) [Compound 77, N-(2-((3,4-dihydroisoquinolin-2(1H)-yl)sulfonyl)ethyl)-1-(3-methoxyphenyl)-5-oxopyrrolidine-3-carboxamide]
[1]; 20 µM
  Cytotoxicity against HEK cells: 0.578

## O=C(NCCS(=O)(=O)N1CCN(c2ccc(F)cc2)CC1)C1CC(=O)N(c2ccccc2)C1 (stereo not shown) [Compound 78, N-(2-((4-(4-fluorophenyl)piperazin-1-yl)sulfonyl)ethyl)-5-oxo-1-phenylpyrrolidine-3-carboxamide]
[1]; 20 µM
  Cytotoxicity against HEK cells: 0.574

Reference: publication PMC7327142 (Biomolecules & Therapeutics, 2020)
